From patent US6262046A, “Azetidinylpropylpiperidine derivatives, intermediates and use as tachykinin antagonists” (Pfizer Inc., priority 1997, dated 2001) come the findings set out here.

The target of this experiment is T1, guinea pig cortex NK3 receptor (Cavia porcellus, UniProt P30098).
T1 construct: guinea pig cortex NK3 receptor; from tissue; host or cells: guinea pig (brain) cortex, prepared by the cited method of Guard et al., Br. J. Pharmacol. (1990), 99, 767
T1 sequence (P30098 1-440): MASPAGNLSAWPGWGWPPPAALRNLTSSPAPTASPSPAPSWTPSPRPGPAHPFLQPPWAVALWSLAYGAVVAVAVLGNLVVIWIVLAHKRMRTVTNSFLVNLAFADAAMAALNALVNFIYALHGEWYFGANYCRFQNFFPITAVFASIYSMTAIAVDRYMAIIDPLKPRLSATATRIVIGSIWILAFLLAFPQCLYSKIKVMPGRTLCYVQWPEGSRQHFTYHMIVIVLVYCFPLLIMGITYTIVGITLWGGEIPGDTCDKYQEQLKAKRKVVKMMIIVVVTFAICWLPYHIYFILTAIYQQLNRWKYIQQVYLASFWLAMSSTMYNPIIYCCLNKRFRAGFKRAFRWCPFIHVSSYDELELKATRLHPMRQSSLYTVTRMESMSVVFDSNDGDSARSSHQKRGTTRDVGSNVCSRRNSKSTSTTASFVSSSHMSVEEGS
Kind of experiment: in vitro affinity for the guinea pig cortex NK3 receptor (displacement of [^3 H] senktide). The conditions noted are these: displacement of [^3 H] senktide at guinea pig cortex NK3 receptor. Type of experiment: binding. On the procedure: The affinity of the compounds of formula (I) and their salts for the NK3 receptor can be tested in vitro by testing their ability to displace [^3 H] senktide at the guinea pig cortex NK3 receptor. The receptors are prepared by the method described by S. Guard, et al, in Br.J.Pharmacol. (1990), 99, 767.
The data below illustrates the in vitro affinity of substances of the invention for the guinea pig cortex NK3 receptor, which assays were carried out according to the method mentioned earlier on page 15.
As usually defined, the IC50 is the concentration that gives 50% inhibition. Lower therefore signals greater potency in that assay. `CS(=O)(=O)N(c1ccccc1)C1CN(CCC[C@]2(c3ccc(Cl)c(Cl)c3)CCCN(C(=O)c3ccccc3)C2)C1` [Example 13] had an IC50 of 11.2 nM.

The compound `CS(=O)(=O)N1CCN(C2CN(CCC[C@]3(c4ccc(Cl)c(Cl)c4)CCCN(C(=O)c4ccccc4)C3)C2)CC1` [Example 3, (+)-3(R)-1-Benzoyl-3-(3,4-dichlorophenyl)-3-(3-[3-(4-methanesulphonylpiperazin-1-yl)azetidin-1-yl]propyl)piperidine] showed an IC50 of 1.58 nM. This IC50 is about 7.1-fold lower than that of the compound before.

`CS(=O)(=O)N1CCN(C2CN(CCC[C@]3(c4ccc(Cl)c(Cl)c4)CCCN(C(=O)c4ccc(F)c(F)c4)C3)C2)CC1` [Example 17, (+)-3(R)-3-(3,4-Dichlorophenyl)-1-(3,4-difluorobenzoyl)-3-(3-[3-(4-methanesulphonylpiperazin-1-yl)azetidin-1-yl]propyl)piperidine] gave an IC50 of 3.98 nM. Compared with the last compound, the IC50 is about 2.5-fold higher.
